According to patent US20140371267A1, “OPHTHALMIC COMPOSITION WITH NITRIC OXIDE DONOR COMPOUND AND METHOD OF FORMING AND USING SAME” (ALCON RESEARCH, LTD., priority 2009, published 2014):

Columns and labels:
ARPE-19 cells = assay: 7-ketocholesterol-induced RPE cell death, WST-1 cell viability; format: cell-based; conditions: for % Survival: compared to media-treated cells
Protocol: Compound 1 was evaluated for its ability to prevent 7-ketocholesterol-induced retinal pigmented epithelial (RPE) cell death in vitro. ARPE-19 cells were grown in DMEM:F12 (Invitrogen) (1:1) with 10% FBS (HyClone) and 56 mM Na Bicarbonate (Gibco) in a 10% CO2 humidified 37° C. incubator. Cells were split at a ratio of 1:3 once per week and fed every 2-3 days. ARPE-19 cells were plated at a density of 12,500 cells per well in 100 μL, which is approximately […].
7-ketocholesterol (5-CHOLESTEN-3β-OL-7-ONE) and Cholesterol (5-CHOLESTEN-3β-OL) (Steraloids, Inc., Newport R.I.) were resuspended in 37° C. 45% 2-hydroxylpropyl-β-cyclodextrin at a concentration of 10 mM. Working dilutions of 1 mM are subsequently made in 37° C. DMEM:/F12 containing 0.1% FBS and NaBicarb. Further dilutions (5 to 30 μM) for treatment were also made in 37° C. DMEM:F12 with 0.1% FBS and NaBicarb to maintain activity of the 7-ketocholesterol. As negative controls, vehicle alone and cholesterol suspended in 2-HP-β-cyclodextrin were included in each experiment.
Cell proliferation reagent WST-1 (Roche), a tetrazolium salt that is cleaved to formazan through the mitochondrial succinate-tetrazolium-reductase system in live cells, was used as a measure of cell viability. Cells were treated with 7-ketocholesterol for 1 day, at which time 10 μL at of WST-1 reagent was added to each well containing 100 μL at of media. The plates were then incubated for 1-4 hours to allow for adequate color development and then absorbance was read in a microplate ELISA reader at […]. WST reagent was also added to one set of control wells containing media only. These readings were subtracted from each of the WST readings as background. Cell viability for all treated wells was normalized to the well with untreated cells and data is presented as percent survival as compared to untreated. The table below summarizes the results.

[1] = in vitro; versus GTN and SNAP; cited from earlier work
[2] = test system: cynomolgus monkeys with ocular hypertension; assay: IOP reduction in lasered ocular hypertensive monkeys; format: in vivo; conditions: 150 μg in 30 μL drop, topical, lasered eye
Protocol: The ability of compound 1 of the present invention to reduce IOP was evaluated in cynomolgus monkeys with ocular hypertension produced by previous laser trabeculoplasty in the right eye. Animals had been trained to sit in restraint chairs and conditioned to accept experimental procedures without chemical restraint. Animals were administered a 30 μL drop containing 150 μg of compound 1 dissolved in vehicle to the lasered eye. IOP was determined with a pneumatonometer after light corneal anesthesia with dilute proparacaine. The drug was dosed 35 minutes after the baseline IOP was measured.

[3] = vasodilators; cited from earlier work
c-GMP = conditions: cited from earlier work

## CC(C)CCC[C@@H](C)[C@H]1CC[C@H]2[C@@H]3C(=O)C=C4C[C@@H](O)CC[C@]4(C)[C@H]3CC[C@]12C [7-ketocholesterol, 5-CHOLESTEN-3β-OL-7-ONE, reference compound]
ARPE-19 cells; 7-ketocholesterol 20 μM alone, 1 day
  % Survival: 50%

## CC1(C)CC(O[N+](=O)[O-])CC(C)(C)N1[O] [Compound 1]
[1]
  vasorelaxation efficacy: superior activity
[2]; 1 hour after dosing
  % IOP change from baseline: −15.3%
[2]; 3 hours after dosing
  % IOP change from baseline: −16.7%
[2]; 6 hours after dosing
  % IOP change from baseline: −20.7%
[3]
  NO-tolerance in vivo: do not produce NO-tolerance in vivo
ARPE-19 cells; 10 μM
  RPE cytoprotection: significant
ARPE-19 cells; 100 μM
  RPE cytoprotection: complete
ARPE-19 cells; compound at 100 nM, 7-ketocholesterol-treated cells
  % Survival: 60%
ARPE-19 cells; compound at 1 μM, 7-ketocholesterol-treated cells
  % Survival: 60%
ARPE-19 cells; compound at 10 μM, 7-ketocholesterol-treated cells
  % Survival: 75%
ARPE-19 cells; compound at 100 μM, 7-ketocholesterol-treated cells
  % Survival: 100%
c-GMP
  c-GMP concentration: significant increase
  c-GMP effect relative to GTN: comparable to that of GTN

## CC1(C)CC(CO[N+](=O)[O-])C(C)(C)N1[O] (stereo not drawn) [Compound 2, 3-Nitratomethyl-Proxyl]
[3]
  NO-tolerance in vivo: do not produce NO-tolerance in vivo
